{
  "source": "paper PMC9276671",
  "about": "“A first-in-human Phase I dose-escalation trial of the novel therapeutic peptide, ALM201, demonstrates a favourable safety profile in unselected patients with ovarian cancer and other advanced solid tumours” (British Journal of Cancer, 2022)",
  "experiment": "Plasma pharmacokinetics of ALM201 in Phase I patients (validated LC-MS/MS, Phoenix WinNonlin)",
  "conditions": "for Tmax: median, plasma LC-MS/MS; for Half-life: SC, day 1 cycle 1",
  "note": "No end group written: not given here.",
  "data": [
    {"sequence": "IRQQPRDPPTETLELEVSPDPAS [ALM201]", "values": [
      {"measurement": "level at 2 h", "setting": "human, plasma, sc, 300 mg, Plasma concentration, geometric mean (CV%), 300 mg SC, day 1 cycle 1, 2 h after dosing, n = 3, LC-MS/MS", "result": 2310, "unit": "ng/mL"},
      {"measurement": "level at 3 h", "setting": "human, plasma, sc, 300 mg, Plasma concentration, geometric mean (CV%), 300 mg SC, day 1 cycle 1, 3 h after dosing, n = 3, LC-MS/MS", "result": 2120, "unit": "ng/mL"},
      {"measurement": "level at 4 h", "setting": "human, plasma, sc, 300 mg, Plasma concentration, geometric mean (CV%), 300 mg SC, day 1 cycle 1, 4 h after dosing, n = 3, LC-MS/MS", "result": 1600, "unit": "ng/mL"},
      {"measurement": "level at 5 h", "setting": "human, plasma, sc, 300 mg, Plasma concentration, geometric mean (CV%), 300 mg SC, day 1 cycle 1, 5 h after dosing, n = 3, LC-MS/MS", "result": 1280, "unit": "ng/mL"},
      {"measurement": "level at 6 h", "setting": "human, plasma, sc, 300 mg, Plasma concentration, geometric mean (CV%), 300 mg SC, day 1 cycle 1, 6 h after dosing, n = 3, LC-MS/MS", "result": 901, "unit": "ng/mL"},
      {"measurement": "level at 7 h", "setting": "human, plasma, sc, 300 mg, Plasma concentration, geometric mean (CV%), 300 mg SC, day 1 cycle 1, 7 h after dosing, n = 3, LC-MS/MS", "result": 703, "unit": "ng/mL"},
      {"measurement": "level at 8 h", "setting": "human, plasma, sc, 300 mg, Plasma concentration, geometric mean (CV%), 300 mg SC, day 1 cycle 1, 8 h after dosing, n = 3, LC-MS/MS", "result": 420, "unit": "ng/mL"},
      {"measurement": "level at 0.5 h", "setting": "human, plasma, sc, 300 mg, Plasma concentration, geometric mean (CV%), 300 mg SC, day 3 cycle 1, 0.5 h after dosing, n = 3, LC-MS/MS", "result": 1970, "unit": "ng/mL"},
      {"measurement": "level at 1 h", "setting": "human, plasma, sc, 300 mg, Plasma concentration, geometric mean (CV%), 300 mg SC, day 3 cycle 1, 1 h after dosing, n = 3, LC-MS/MS", "result": 2590, "unit": "ng/mL"},
      {"measurement": "level at 1.5 h", "setting": "human, plasma, sc, 300 mg, Plasma concentration, geometric mean (CV%), 300 mg SC, day 3 cycle 1, 1.5 h after dosing, n = 2 values (CV NC), LC-MS/MS", "result": 1950, "unit": "ng/mL"},
      {"measurement": "level at 2 h", "setting": "human, plasma, sc, 300 mg, Plasma concentration, geometric mean (CV%), 300 mg SC, day 3 cycle 1, 2 h after dosing, n = 2 values (CV NC), LC-MS/MS", "result": 2450, "unit": "ng/mL"},
      {"measurement": "level at 4.5 h", "setting": "human, plasma, sc, 300 mg, Plasma concentration, geometric mean (CV%), 300 mg SC, day 3 cycle 1, 4.5 h after dosing, n = 3, LC-MS/MS", "result": 1740, "unit": "ng/mL"},
      {"measurement": "level at 7 h", "setting": "human, plasma, sc, 300 mg, Plasma concentration, geometric mean (CV%), 300 mg SC, day 3 cycle 1, 7 h after dosing, n = 3, LC-MS/MS", "result": 852, "unit": "ng/mL"},
      {"measurement": "level at 0.5 h", "setting": "human, plasma, sc, 300 mg, Plasma concentration, geometric mean (CV%), 300 mg SC, day 18 cycle 1, 0.5 h after dosing, n = 3, LC-MS/MS", "result": 2290, "unit": "ng/mL"},
      {"measurement": "level at 1 h", "setting": "human, plasma, sc, 300 mg, Plasma concentration, geometric mean (CV%), 300 mg SC, day 18 cycle 1, 1 h after dosing, n = 3, LC-MS/MS", "result": 2410, "unit": "ng/mL"},
      {"measurement": "level at 1.5 h", "setting": "human, plasma, sc, 300 mg, Plasma concentration, geometric mean (CV%), 300 mg SC, day 18 cycle 1, 1.5 h after dosing, n = 3, LC-MS/MS", "result": 2600, "unit": "ng/mL"},
      {"measurement": "level at 2 h", "setting": "human, plasma, sc, 300 mg, Plasma concentration, geometric mean (CV%), 300 mg SC, day 18 cycle 1, 2 h after dosing, n = 3, LC-MS/MS", "result": 2520, "unit": "ng/mL"},
      {"measurement": "level at 4.5 h", "setting": "human, plasma, sc, 300 mg, Plasma concentration, geometric mean (CV%), 300 mg SC, day 18 cycle 1, 4.5 h after dosing, n = 3, LC-MS/MS", "result": 1370, "unit": "ng/mL"},
      {"measurement": "level at 7 h", "setting": "human, plasma, sc, 300 mg, Plasma concentration, geometric mean (CV%), 300 mg SC, day 18 cycle 1, 7 h after dosing, n = 3, LC-MS/MS", "result": 767, "unit": "ng/mL"},
      {"measurement": "level at 0.5 h", "setting": "human, plasma, sc, 300 mg, Plasma concentration, geometric mean (CV%), 300 mg SC, day 18 cycle 2, 0.5 h after dosing, n = 3, LC-MS/MS", "result": 1990, "unit": "ng/mL"},
      {"measurement": "level at 1 h", "setting": "human, plasma, sc, 300 mg, Plasma concentration, geometric mean (CV%), 300 mg SC, day 18 cycle 2, 1 h after dosing, n = 3, LC-MS/MS", "result": 2280, "unit": "ng/mL"},
      {"measurement": "level at 1.5 h", "setting": "human, plasma, sc, 300 mg, Plasma concentration, geometric mean (CV%), 300 mg SC, day 18 cycle 2, 1.5 h after dosing, n = 3, LC-MS/MS", "result": 2380, "unit": "ng/mL"},
      {"measurement": "level at 2 h", "setting": "human, plasma, sc, 300 mg, Plasma concentration, geometric mean (CV%), 300 mg SC, day 18 cycle 2, 2 h after dosing, n = 3, LC-MS/MS", "result": 2540, "unit": "ng/mL"},
      {"measurement": "level at 4.5 h", "setting": "human, plasma, sc, 300 mg, Plasma concentration, geometric mean (CV%), 300 mg SC, day 18 cycle 2, samples collected at 4.5 hours, n = 3, LC-MS/MS", "result": 720, "unit": "ng/mL"},
      {"measurement": "level at 7 h", "setting": "human, plasma, sc, 300 mg, Plasma concentration, geometric mean (CV%), 300 mg SC, day 18 cycle 2, samples collected at 7.0 hours, n = 3, LC-MS/MS", "result": 485, "unit": "ng/mL"},
      {"measurement": "level at 0.5 h", "setting": "human, plasma, sc, 300 mg, Plasma concentration, geometric mean (CV%), 300 mg SC, day 18 cycle 4, 0.5 h after dosing, n = 1, LC-MS/MS", "result": 1670, "unit": "ng/mL"},
      {"measurement": "level at 1 h", "setting": "human, plasma, sc, 300 mg, Plasma concentration, geometric mean (CV%), 300 mg SC, day 18 cycle 4, 1 h after dosing, n = 1, LC-MS/MS", "result": 2140, "unit": "ng/mL"},
      {"measurement": "level at 1.5 h", "setting": "human, plasma, sc, 300 mg, Plasma concentration, geometric mean (CV%), 300 mg SC, day 18 cycle 4, 1.5 h after dosing, n = 1, LC-MS/MS", "result": 1990, "unit": "ng/mL"},
      {"measurement": "level at 2 h", "setting": "human, plasma, sc, 300 mg, Plasma concentration, geometric mean (CV%), 300 mg SC, day 18 cycle 4, 2 h after dosing, n = 1, LC-MS/MS", "result": 1990, "unit": "ng/mL"},
      {"measurement": "level at 4.5 h", "setting": "human, plasma, sc, 300 mg, Plasma concentration, geometric mean (CV%), 300 mg SC, day 18 cycle 4, sample collected at 4.5 hours, n = 1, LC-MS/MS", "result": 854, "unit": "ng/mL"},
      {"measurement": "level at 7 h", "setting": "human, plasma, sc, 300 mg, Plasma concentration, geometric mean (CV%), 300 mg SC, day 18 cycle 4, sample collected at 7.0 hours, n = 1, LC-MS/MS", "result": 387, "unit": "ng/mL"},
      {"measurement": "level at 0.5 h", "setting": "human, plasma, sc, 300 mg, Plasma concentration, geometric mean (CV%), 300 mg SC, day 18 cycle 6, 0.5 h after dosing, n = 1, LC-MS/MS", "result": 3150, "unit": "ng/mL"},
      {"measurement": "level at 1 h", "setting": "human, plasma, sc, 300 mg, Plasma concentration, geometric mean (CV%), 300 mg SC, day 18 cycle 6, 1 h after dosing, n = 1, LC-MS/MS", "result": 4430, "unit": "ng/mL"},
      {"measurement": "level at 1.5 h", "setting": "human, plasma, sc, 300 mg, Plasma concentration, geometric mean (CV%), 300 mg SC, day 18 cycle 6, 1.5 h after dosing, n = 1, LC-MS/MS", "result": 5240, "unit": "ng/mL"},
      {"measurement": "level at 2 h", "setting": "human, plasma, sc, 300 mg, Plasma concentration, geometric mean (CV%), 300 mg SC, day 18 cycle 6, 2 h after dosing, n = 1, LC-MS/MS", "result": 6830, "unit": "ng/mL"},
      {"measurement": "level at 4.5 h", "setting": "human, plasma, sc, 300 mg, Plasma concentration, geometric mean (CV%), 300 mg SC, day 18 cycle 6, sample collected at 4.5 hours, n = 1, LC-MS/MS", "result": 3600, "unit": "ng/mL"},
      {"measurement": "level at 7 h", "setting": "human, plasma, sc, 300 mg, Plasma concentration, geometric mean (CV%), 300 mg SC, day 18 cycle 6, sample collected at 7.0 hours, n = 1, LC-MS/MS", "result": 693, "unit": "ng/mL"},
      {"measurement": "Tmax", "setting": "human, plasma, sc, 300 mg, 300 mg SC, day 1 cycle 1, n = 3", "result": 2, "unit": "h"},
      {"measurement": "Tmax", "setting": "human, plasma, sc, 300 mg, 300 mg SC, day 3 cycle 1, n = 3", "result": 1.02, "unit": "h"},
      {"measurement": "Tmax", "setting": "human, plasma, sc, 300 mg, 300 mg SC, day 18 cycle 1, n = 3", "result": 1.5, "unit": "h"},
      {"measurement": "Tmax", "setting": "human, plasma, sc, 300 mg, 300 mg SC, day 18 cycle 4, n = 1", "result": 1.12, "unit": "h"},
      {"measurement": "Tmax", "setting": "human, plasma, sc, 300 mg, 300 mg SC, day 18 cycle 6, n = 1", "result": 2.02, "unit": "h"},
      {"measurement": "Half-life", "setting": "patient 02.002, 80 mg cohort", "result": 1.80, "unit": "h"},
      {"measurement": "Half-life", "setting": "patient 02.003, 160 mg cohort", "result": 1.50, "unit": "h"},
      {"measurement": "Half-life", "setting": "patient 03.005, 160 mg cohort", "result": 0.90, "unit": "h"}
    ]}
  ]
}
